Laboratory results as given in PubChem BioAssay (NCI).
Where “and” joins values, the source holds several entries; their conditions need not be identical. Identical values can stand only once.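 Assay format: 96-well plates, 48-hour exposure. At the GI50, growth is halved. TGI denotes the concentration required for complete inhibition of growth.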

Tests used:
Test in all cases: DTP human tumour cell line panel, 48 h
[1] = system: HCT-116 colon
[2] = system: A498 renal
[3] = system: NCI-H460 lung
[4] = system: MALME-3M melanoma
[5] = system: SF-295 CNS
[6] = system: TK-10 renal
[7] = system: LOX IMVI melanoma
[8] = system: CAKI-1 renal
[9] = system: SF-268 CNS
[10] = system: HOP-62 NSCLC

| Structure (SMILES) | TGI [1] | TGI [2] | TGI [3] | TGI [4] | TGI [5] | TGI [6] | TGI [7] | TGI [8] | TGI [9] | GI50 [1] | GI50 [2] | GI50 [3] | GI50 [10] | TGI [10] | GI50 [5] | GI50 [6] | GI50 [7] | GI50 [8] | GI50 [9] | GI50 [4] |
| --- | --- | --- | --- | --- | --- | --- | --- | --- | --- | --- | --- | --- | --- | --- | --- | --- | --- | --- | --- | --- |
| N/N=C(\CC1OC(=O)c2ccccc21)c1ccco1 (stereo not drawn) | > 100 µM | > 100 µM | > 100 µM | > 100 µM | > 100 µM | > 100 µM | > 100 µM | > 100 µM | > 100 µM | – | – | – | – | – | – | – | – | – | – | – |
| Nc1ccc(C(=O)c2ccc(N)c(Br)c2)cc1Br | 11.6 µM | 3.95 µM | 5.76 µM | – | 0.664 µM | 21.5 µM | > 65.7 µM | 14.7 µM | > 53.1 µM | 0.461 µM | 0.277 µM | 0.346 µM | 0.538 µM | 22.7 µM | 0.228 µM | 0.567 µM | 0.848 µM | 0.299 µM | 0.747 µM | – |
| COc1ccc(C(=O)C(c2ccc(OC)cc2)C2(O)C(=O)Nc3c(C)cc(Cl)cc32)cc1 (stereo not drawn) | > 100 µM | > 100 µM | > 100 µM | > 100 µM | > 100 µM | > 100 µM | – | – | > 100 µM | – | – | – | – | > 100 µM | – | – | – | – | – | – |
| O=C(CNC(=O)OCc1ccccc1)Oc1ccccc1 | > 100 µM | > 100 µM | > 100 µM | > 100 µM | > 100 µM | > 100 µM | > 100 µM | – | > 100 µM | – | – | – | – | > 100 µM | – | – | – | – | – | – |
| COc1cc2c(c(OC)c1OC)-c1ccc(SC)c(=O)cc1[C@@H](NC(=O)c1ccc(OC(C)=O)cc1)CC2 | 0.0514 µM and 0.015 µM | 0.0779 µM and 0.0202 µM | 0.0206 µM | – | – | 33.4 µM | 0.0539 µM | > 100 µM | 24.8 µM | – | – | – | 0.0126 µM | 22.2 µM | – | 0.0113 µM | – | – | – | – |
| C1CNCCNCCNCCN1 | > 100 µM | > 100 µM | > 100 µM | > 100 µM | > 100 µM | > 100 µM | > 100 µM | – | – | – | – | – | – | > 100 µM | – | – | – | – | – | – |
| N#CCc1ccc(C(C#N)/C(CCCC(=O)Nc2cccc([N+](=O)[O-])c2)=N\NC(=O)NN)cc1 (stereo not drawn) | > 100 µM | > 100 µM | > 100 µM | > 100 µM | > 100 µM | > 100 µM | – | > 100 µM | > 100 µM | – | – | – | – | > 100 µM | – | – | – | – | – | – |
| CCC1=C[C@@H]2CN(C1)Cc1c([nH]c3ccccc13)[C@@](C(=O)OC)(c1cc3c(cc1OC)N(C=O)[C@H]1[C@@](O)(C(=O)OC)[C@H](OC(C)=O)[C@]4(CC)[C@@H]5C[C@@H]5CN5CC[C@]31[C@@H]54)C2 | – | 0.0794 µM | > 6.25 µM | – | – | > 6.25 µM | > 6.25 µM | > 6.25 µM | > 6.25 µM | < 0.000625 µM | 0.00221 µM | 0.00135 µM | 0.00158 µM | > 6.25 µM | 0.00156 µM | 0.315 µM | < 0.000625 µM | 0.253 µM | 0.00111 µM | – |
| CC1(C)COCN1COC1CCCCC1 | > 100 µM | > 100 µM | > 100 µM | > 100 µM | > 100 µM | > 100 µM | – | > 100 µM | > 100 µM | – | – | – | – | > 100 µM | – | – | – | – | – | – |
| CC(C)(C)C(=O)Nc1ccccc1I(=O)=O | – | > 100 µM | > 100 µM | > 100 µM | > 100 µM | > 100 µM | > 100 µM | > 100 µM | > 100 µM | – | > 100 µM | > 100 µM | – | – | > 100 µM | > 100 µM | > 100 µM | > 100 µM | > 100 µM | > 100 µM |
| Cc1cccc(C)c1NC(=O)CCCC(=O)CC(=O)/C=C/c1ccccc1 | > 100 µM | > 100 µM | > 100 µM | > 100 µM | – | > 100 µM | > 100 µM | > 100 µM | > 100 µM | – | – | – | – | – | – | – | – | – | – | – |
| Cc1nc2c(=O)[nH]c(=O)n(C)c2[nH]c1=O | > 100 µM | > 100 µM | > 100 µM | > 100 µM | – | > 100 µM | > 100 µM | > 100 µM | > 100 µM | – | – | – | – | > 100 µM | – | – | – | – | – | – |
| O=C(/C=C/C=C/c1ccccc1)CCc1ccccc1 | > 100 µM | > 100 µM | – | > 100 µM | > 100 µM | > 100 µM | > 100 µM | > 100 µM | > 100 µM | – | – | – | – | > 100 µM | – | – | – | – | – | – |
| COc1ccc(C2S/C(=C\c3cc(OC)c(OC)c(OC)c3)C(=O)N2NC(=O)Cc2ccccc2)cc1 (stereo not drawn) | > 100 µM | – | > 100 µM | > 100 µM | > 100 µM | > 100 µM | > 100 µM | > 100 µM | > 100 µM | – | – | – | – | > 100 µM | – | – | – | – | – | – |
| Nc1nc(Nc2ccc3c(c2)CC[C@@H](N2CCCC2)CC3)nn1-c1cc2c(nn1)-c1ccccc1CCC2 | 3.08 µM | 1.44 µM | 2.82 µM | – | 3.51 µM | 2.97 µM | 2.92 µM | 2.5 µM | 3.26 µM | 1.5 µM | 0.0249 µM | 1.31 µM | – | – | 1.88 µM | 1.35 µM | 1.5 µM | 1.22 µM | 1.44 µM | – |
| Cc1cc(O)c(C(=O)CC2(O)C(=O)Nc3c(Cl)cc(Cl)cc32)c(=O)o1 (stereo not drawn) | > 100 µM | > 100 µM | > 100 µM | > 100 µM | > 100 µM | > 100 µM | – | > 100 µM | > 100 µM | – | – | – | – | > 100 µM | – | – | – | – | – | – |
| CCN(CC)CCOc1ccc(Nc2ncc3cc(-c4ccc(O)cc4)c(=O)n(C)c3n2)cc1 | – | 13.4 µM | 8.85 µM | 2.44 µM | 30.4 µM | 8.73 µM | 5.87 µM | 16.1 µM | 20.9 µM | – | 1.5 µM | 3.77 µM | 2.78 µM | 23.7 µM | 13.9 µM | 3.9 µM | 0.168 µM | 0.0379 µM | 1.19 µM | 0.734 µM |
| O=C(Nc1ccc(-n2cc(-c3ccncc3)c(-c3ccc(Cl)c(O)c3)n2)cc1)Nc1cc(C(F)(F)F)cc(C(F)(F)F)c1 | 3.14 µM | 5.39 µM | 3.85 µM | – | 3.08 µM | 11.4 µM | 3.02 µM | 3.57 µM | 3.27 µM | 1.61 µM | 1.56 µM | 1.92 µM | 1.8 µM | 3.66 µM | 1.47 µM | 3.05 µM | 1.63 µM | 1.77 µM | 1.62 µM | – |
